According to patent US20130274228A1, “CONCOMITANT DRUG FOR IMPROVING COGNITIVE FUNCTION” (Nishizaki Bioinformation Research Institute, priority 2010, published 2013):

System: normal rats
Assay: Water maze test (acquisition latency)
Type: in vivo, rat
Settings: oral, every day from 7 days before and during the test, male Wister rats
Procedure: Male Wister rats (7-weeks-old) were used for a water maze test. A circular plastic water tank (diameter 180 cm, depth 45 cm) was used. The inside of the water tank was completely painted in black, and dark water with India ink was filled up to 25 cm from the bottom (22° C.). A platform (diameter 11 cm) painted in black was placed in water such that it was 1 cm below the water surface. The water tank was placed in a test room, and several marks seen by the rat from the water tank were put thereon. During the test, the position of the marks was not changed. A platform was placed a predetermined position from the equal distance from the center and the end of the water tank, namely, center of one quadrant. At one of the randomly selected 5 points, the rat was released facing the wall of the water tank, and the time necessary for evacuating on the platform (acquisition latency) was measured. When smoothly evacuated, the rat was left on the platform for 10 seconds. From 7 days before the water maze test and during the test, DLPC (5 mg/kg) alone, DLPC (10 mg/kg) alone, POPC (5 mg/kg) alone, POPC (10 mg/kg) alone, DLPC (5 mg/kg) and POPC (5 mg/kg), or PEG alone, each dissolved in polyethylene glycol (PEG), was orally administered every day. The water maze test m was performed twice a day, and the second test was started at 2 min after the first test. The test was continuously performed for 8 days, and the mean (±SEM) of acquisition latency of continuous 2 days until the rat reached the platform was calculated.
PEG, DLPC (5 mg/kg), DLPC (10 mg/kg), POPC (5 mg/kg), POPC (10 mg/kg) or DLPC (5 mg/kg) and POPC (5 mg/kg) was orally administered to rats every day during the water maze test from 7 days before the test.

Row | Structure (SMILES) | acquisition latency of the rat (single administration 5 mg/kg) | acquisition latency of the rat (single administration 10 mg/kg)
1 | CCCCC/C=C\C/C=C\CCCCCCCC(=O)OC[C@H](COP(=O)([O-])OCC[N+](C)(C)C)OC(=O)CCCCCCC/C=C\C/C=C\CCCCC [DLPC, 1,2-dilinoleoyl-sn-glycero-3-phosphocholine] | did not show a remarkable effect | did not show a remarkable effect
2 | CCCCCCCC/C=C\CCCCCCCC(=O)O[C@H](COC(=O)CCCCCCCCCCCCCCC)COP(=O)([O-])OCC[N+](C)(C)C [POPC, 1-palmitoyl-2-oleoyl-sn-glycero-3-phosphocholine] | did not show a remarkable effect | did not show a remarkable effect
